Assay results from patent US9416111B2, “Substituted diazine and triazine spleen tyrosine kinease (Syk) inhibitors” (Merck Sharp & Dohme Corp., priority 2012, dated 2016).

What follows are compounds tested against T1, recombinant human GST-SYK (Homo sapiens, UniProt P43405) (assay: Homogeneous Time-Resolved Fluorescence (HTRF) assay for the recombinant human Syk enzyme). Settings: GST-hSYK 5 pM, ATP 25 μM, IC50 rated in classes, read-out: rhSYK Activity.
T1 construct: purchased Carna Biosciences 08-176
Type: biochemical
Method: Homogeneous Time-Resolved Fluorescence (HTRF) Assay for the Recombinant Human Syk Enzyme
A recombinant GST-hSYK fusion protein was used to measure potency of compounds to inhibit human Syk activity. The recombinant human GST-SYK (Carna Biosciences #08-176) (5 pM final concentration) was incubated with various concentrations of the inhibitor diluted in DMSO (0.1% final concentration) for 10 minutes at room temperature in 15 mM Tris-HCl (pH 7.5), 0.01% tween 20, 2 mM DTT in 384 well plate format. To initiate the reaction the biotinylated substrate peptide (250 nM final concentration) that contains the phosphorylation site for Syk was added with magnesium (5 mM final concentration) and ATP (25 μM final concentration). Final volume of the reaction was 10 μL. Phosphorylation of the peptide was allowed to proceed for 45′ at room temperature. To quench the reaction and detect the phosphorylated product, 2 nM of a Europium-anti-phosphotyrosine antibody (Perkin Elmer #AD0161) and 70 nM SA-APC (Perkin-Elmer #CR130-100) were added together in 15 mM Tris pH 7.5, 40 mM EDTA, 0.01% tween 20. Final volume of the quenching solution was 10 μL. The resulting HTRF signal was measured after 30 minutes on an EnVision (Perkin-Elmer) reader using a time-resolved fluorescence protocol.

SMILES	IC50 [nM]
Cc1cc(Nc2nccc(C(F)(F)F)n2)cc(-c2cnc(N3CCC(C)(O)CC3)nc2)c1 [Example 2.29, 4-methyl-1-[5-(3-methyl-5-{[4-(trifluoromethyl)pyrimidin-2-yl]amino}phenyl)pyrimidin-2-yl]piperidin-4-ol]	100 to 1000
CC(=O)N1CCN(c2ncc(-c3cc(C)cc(Nc4nccc(C(F)(F)F)n4)c3)cn2)CC1 [Example 2.40, N-{3-[2-(4-acetylpiperazin-1-yl)pyrimidin-5-yl]-5-methylphenyl}-4-(trifluoromethyl)pyrimidin-2-amine]	< 100
Cc1cc(Nc2nccc(C(F)(F)F)n2)cc(-c2cnc(NC3CCCCNC3=O)nc2)c1 (stereo not drawn) [Example 2.42, 3-{[5-(3-methyl-5-{[4-(trifluoromethyl)pyrimidin-2-yl]amino}phenyl)pyrimidin-2-yl]amino}azepan-2-one]	< 100
Cc1cc(Nc2nccc(C(F)(F)F)n2)cc(-c2cnc(N(C)CC(O)CO)nc2)c1 (stereo not drawn) [Example 2.43, 3-{methyl[5-(3-methyl-5-{[4-(trifluoromethyl)pyrimidin-2-yl]amino}phenyl)pyrimidin-2-yl]amino}propane-1,2-diol]	< 100
CNC(=O)CNc1ncc(-c2cc(C)cc(Nc3nccc(C(F)(F)F)n3)c2)cn1 [Example 2.44, N-methyl-N~2~-[5-(3-methyl-5-{[4-(trifluoromethyl)pyrimidin-2-yl]amino}phenyl)pyrimidin-2-yl]glycinamide]	< 100
Cc1cc(Nc2nccc(C(F)(F)F)n2)cc(-c2cnc(N(C)CCC3OCCO3)nc2)c1 [Example 2.45, N-[2-(1,3-dioxolan-2-yl)ethyl]-N-methyl-5-(3-methyl-5-{[4-(trifluoromethyl)pyrimidin-2-yl]amino}phenyl)pyrimidin-2-amine]	< 100
Cc1cc(Nc2nccc(C(F)(F)F)n2)cc(-c2cnc(N3CCNC(=O)C3)nc2)c1 [Example 2.46, 4-[5-(3-methyl-5-{[4-(trifluoromethyl)pyrimidin-2-yl]amino}phenyl)pyrimidin-2-yl]piperazin-2-one]	< 100
Cc1cc(Nc2nccc(C(F)(F)F)n2)cc(-c2cnc(NCC(C)(C)O)nc2)c1 [Example 2.47, 2-methyl-1-{[5-(3-methyl-5-{[4-(trifluoromethyl)pyrimidin-2-yl]amino}phenyl)pyrimidin-2-yl]amino}propan-2-ol]	< 100
Cc1cc(Nc2nccc(C(F)(F)F)n2)cc(-c2cnc(NCCS(C)(=O)=O)nc2)c1 [Example 2.48, N-[3-methyl-5-(2-{[2-(methylsulfonyl)ethyl]amino}pyrimidin-5-yl)phenyl]-4-(trifluoromethyl)pyrimidin-2-amine]	< 100
COCC1CCCCN1c1ncc(-c2cc(C)cc(Nc3nccc(C(F)(F)F)n3)c2)cn1 (stereo not drawn) [Example 2.49, N-(3-{2-[2-(methoxymethyl)piperidin-1-yl]pyrimidin-5-yl}-5-methylphenyl)-4-(trifluoromethyl)pyrimidin-2-amine]	100 to 1000
Cc1cc(Nc2nccc(C(F)(F)F)n2)cc(-c2cnc(N3CC(O)C3)nc2)c1 [Example 2.50, 1-[5-(3-methyl-5-{[4-(trifluoromethyl)pyrimidin-2-yl]amino}phenyl)pyrimidin-2-yl]azetidin-3-ol]	< 100
CCC1C(=O)NCCN1c1ncc(-c2cc(C)cc(Nc3nccc(C(F)(F)F)n3)c2)cn1 (stereo not drawn) [Example 2.51, 3-ethyl-4-[5-(3-methyl-5-{[4-(trifluoromethyl)pyrimidin-2-yl]amino}phenyl)pyrimidin-2-yl]piperazin-2-one]	< 100
Cc1cc(Nc2nccc(C(F)(F)F)n2)cc(-c2cnc(NCc3cncn3C)nc2)c1 [Example 2.52, N-[3-methyl-5-(2-{[(1-methyl-1H-imidazol-5-yl)methyl]amino}pyrimidin-5-yl)phenyl]-4-(trifluoromethyl)pyrimidin-2-amine]	< 100
CCCOC1CCCN(c2ncc(-c3cc(C)cc(Nc4nccc(C(F)(F)F)n4)c3)cn2)C1 (stereo not drawn) [Example 2.53, N-{3-methyl-5-[2-(3-propoxypiperidin-1-yl)pyrimidin-5-yl]phenyl}-4-(trifluoromethyl)pyrimidin-2-amine]	100 to 1000
Cc1cc(Nc2nccc(C(F)(F)F)n2)cc(-c2cnc(N3CCC3C(=O)O)nc2)c1 (stereo not drawn) [Example 2.54, 1-[5-(3-methyl-5-{[4-(trifluoromethyl)pyrimidin-2-yl]amino}phenyl)pyrimidin-2-yl]azetidine-2-carboxylic acid]	< 100
CCN1CCN(c2ncc(-c3cc(C)cc(Nc4nccc(C(F)(F)F)n4)c3)cn2)CC1 [Example 2.55, N-{3-[2-(4-ethylpiperazin-1-yl)pyrimidin-5-yl]-5-methylphenyl}-4-{trifluoromethyl)pyrimidin-2-amine]	< 100
Cc1cc(Nc2nccc(C(F)(F)F)n2)cc(-c2cnc(N3CCCC[C@H]3C(=O)O)nc2)c1 [Example 2.56, (2S)-1-[5-(3-methyl-5-{[4-(trifluoromethyl)pyrimidin-2-yl]amino}phenyl)pyrimidin-2-yl]piperidine-2-carboxylic acid]	< 100
Cc1cc(Nc2nccc(C(F)(F)F)n2)cc(-c2cnc(NC(C)(C)CO)nc2)c1 [Example 2.57, 2-methyl-2-{[5-(3-methyl-5-{[4-(trifluoromethyl)pyrimidin-2-yl]amino}phenyl)pyrimidin-2-yl]amino}propan-1-ol]	< 100
Cc1cc(Nc2nccc(C(F)(F)F)n2)cc(-c2cnc(NC(C)CO)nc2)c1 (stereo not drawn) [Example 2.58, 2-{[5-(3-methyl-5-{[4-(trifluoromethyl)pyrimidin-2-yl]amino}phenyl)pyrimidin-2-yl]amino}propan-1-ol]	< 100
CCC(CO)Nc1ncc(-c2cc(C)cc(Nc3nccc(C(F)(F)F)n3)c2)cn1 (stereo not drawn) [Example 2.59, 2-{[5-(3-methyl-5-{[4-(trifluoromethyl)pyrimidin-2-yl]amino}phenyl)pyrimidin-2-yl]amino}butan-1-ol]	< 100
Cc1cc(Nc2nccc(C(F)(F)F)n2)cc(-c2cnc(NCC(C)O)nc2)c1 (stereo not drawn) [Example 2.60, 1-{[5-(3-methyl-5-{[4-(trifluoromethyl)pyrimidin-2-yl]amino}phenyl)pyrimidin-2-yl]amino}propan-2-ol]	< 100
Cc1cc(Nc2nccc(C(F)(F)F)n2)cc(-c2cnc(NCC(O)CC(=O)O)nc2)c1 (stereo not drawn) [Example 2.61]	< 100

Results, then the compound that gave them:

IC50 [nM]	SMILES
< 100	Cc1cc(Nc2nccc(C(F)(F)F)n2)cc(-c2cnc(N3CCCC(C)(O)C3)nc2)c1 (stereo not drawn) [Example 2.27, 3-methyl-1-[5-(3-methyl-5-{[4-(trifluoromethyl)pyrimidin-2-yl]amino}phenyl)pyrimidin-2-yl]piperidin-3-ol]
< 100	Cc1cc(Nc2nccc(C(F)(F)F)n2)cc(-c2cnc(N3CCC(C)(O)C3)nc2)c1 (stereo not drawn) [Example 2.28, 3-methyl-1-[5-(3-methyl-5-{[4-(trifluoromethyl)pyrimidin-2-yl]amino}phenyl)pyrimidin-2-yl]pyrrolidin-3-ol]
< 100	Cc1cc(Nc2nccc(C(F)(F)F)n2)cc(-c2cnc(N(C)CCO)nc2)c1 [Example 2.30, 2-{methyl[5-(3-methyl-5-{[4-(trifluoromethyl)pyrimidin-2-yl]amino}phenyl)pyrimidin-2-yl]amino}ethanol]
< 100	Cc1cc(Nc2nccc(C(F)(F)F)n2)cc(-c2cnc(N(CCO)CCO)nc2)c1 [Example 2.31, 2,2′-{[5-(3-methyl-5-{[4-(trifluoromethyl)pyrimidin-2-yl]amino}phenyl)pyrimidin-2-yl]imino}diethanol]
< 100	Cc1cc(Nc2nccc(C(F)(F)F)n2)cc(-c2cnc(N(C)CC(=O)O)nc2)c1 [Example 2.32, N-methyl-N-[5-(3-methyl-5-{[4-(trifluoromethyl)pyrimidin-2-yl]amino}phenyl)pyrimidin-2-yl]glycine]
< 100	Cc1cc(Nc2nccc(C(F)(F)F)n2)cc(-c2cnc(NCCc3c[nH]cn3)nc2)c1 [Example 2.33, N-[3-(2-{[2-(1H-imidazol-4-yl)ethyl]amino}pyrimidin-5-yl)-5-methylphenyl]-4-(trifluoromethyl)pyrimidin-2-amine]
< 100	Cc1cc(Nc2nccc(C(F)(F)F)n2)cc(-c2cnc(NCCCO)nc2)c1 [Example 2.34, 3-{[5-(3-methyl-5-{[4-(trifluoromethyl)pyrimidin-2-yl]amino}phenyl)pyrimidin-2-yl]amino}propan-1-ol]
< 100	Cc1cc(Nc2nccc(C(F)(F)F)n2)cc(-c2cnc(NCCCCO)nc2)c1 [Example 2.35, 4-{[5-(3-methyl-5-{[4-(trifluoromethyl)pyrimidin-2-yl]amino}phenyl)pyrimidin-2-yl]amino}butan-1-ol]
< 100	Cc1cc(Nc2nccc(C(F)(F)F)n2)cc(-c2cnc(NC3(CO)CCCC3)nc2)c1 [Example 2.36, (1-{[5-(3-methyl-5-{[4-(trifluoromethyl)pyrimidin-2-yl]amino}phenyl)pyrimidin-2-yl]amino}cyclopentyl)methanol]
< 100	Cc1cc(Nc2nccc(C(F)(F)F)n2)cc(-c2cnc(NCC(N)=O)nc2)c1 [Example 2.37, N~2~-[5-(3-methyl-5-{[4-(trifluoromethyl)pyrimidin-2-yl]amino}phenyl)pyrimidin-2-yl]glycinamide]
< 100	Cc1cc(Nc2nccc(C(F)(F)F)n2)cc(-c2cnc(NCCC(N)=O)nc2)c1 [Example 2.39, N~3~-[5-(3-methyl-5-{[4-(trifluoromethyl)pyrimidin-2-yl]amino}phenyl)pyrimidin-2-yl]-beta-alaninamide]
